In the NIST ThermoML archive (doi:10.1021/acs.jced.8b00975):

Experiment: xn = mol fraction of the nth substance listed
Settings: Liquid, Vibrating tube method

C=C(C)C(=O)OCCN(C)C [2-(dimethylamino)ethyl methylpropenoate] + CCCCO
mass density [kg/m3]
Settings | 100 kPa | 5000 kPa | 10000 kPa | 15000 kPa | 30000 kPa | 35000 kPa
293.15 K, x1 = 0.0301 | – | – | – | – | 836.92 | 839.85
293.15 K, x1 = 0.06 | – | – | – | – | 843.75 | 846.74
293.15 K, x1 = 0.1005 | – | – | – | – | 852.74 | 855.68
293.15 K, x1 = 0.1995 | – | – | – | – | 872 | 875.01
293.15 K, x1 = 0.2993 | – | – | – | – | 888.38 | 891.38
293.15 K, x1 = 0.4005 | – | – | – | – | 902.42 | 905.46
293.15 K, x1 = 0.4521 | – | – | – | – | 908.71 | 911.75
293.15 K, x1 = 0.499 | – | – | – | – | 913.96 | 917.02
293.15 K, x1 = 0.5494 | – | – | – | – | 919.29 | 922.33
293.15 K, x1 = 0.5994 | – | – | – | – | 924.09 | 927.2
293.15 K, x1 = 0.7005 | – | – | – | – | 932.85 | 935.95
293.15 K, x1 = 0.7989 | – | – | – | – | 940.42 | 943.55
293.15 K, x1 = 0.8992 | – | – | – | – | 947.2 | 950.36
293.15 K, x1 = 0.9293 | – | – | – | – | 949.02 | 952.13
293.15 K, x1 = 0.9592 | – | – | – | – | 950.89 | 953.97
303.15 K, x1 = 0.0302 | 809.38 | 813.38 | 817.11 | 820.61 | – | –
303.15 K, x1 = 0.0602 | 816.25 | 820.35 | 824.12 | 827.61 | – | –
303.15 K, x1 = 0.1007 | 825 | 829.05 | 832.79 | 836.28 | – | –
303.15 K, x1 = 0.2007 | 844.03 | 848.08 | 851.83 | 855.35 | – | –
303.15 K, x1 = 0.3007 | 860.04 | 864.03 | 867.77 | 871.3 | – | –
303.15 K, x1 = 0.4013 | 873.63 | 877.52 | 881.22 | 884.76 | – | –
303.15 K, x1 = 0.4512 | 879.59 | 883.43 | 887.11 | 890.65 | – | –
303.15 K, x1 = 0.5007 | 885.03 | 888.88 | 892.55 | 896.09 | – | –
303.15 K, x1 = 0.5502 | 890.11 | 894.02 | 897.73 | 901.29 | – | –
303.15 K, x1 = 0.6045 | 895.25 | 899.16 | 902.88 | 906.44 | – | –
303.15 K, x1 = 0.7005 | 903.5 | 907.36 | 911.08 | 914.68 | – | –
303.15 K, x1 = 0.8026 | 911.12 | 914.97 | 918.68 | 922.29 | – | –
303.15 K, x1 = 0.9026 | 917.53 | 921.4 | 925.14 | 928.77 | – | –
303.15 K, x1 = 0.9303 | 919.17 | 923.07 | 926.83 | 930.48 | – | –
303.15 K, x1 = 0.9616 | 921.02 | 924.91 | 928.67 | 932.32 | – | –
